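1) Cells in 96-well plates. 2) Compound, 48 h, 5 concentrations. 3) Linear interpolation between surrounding doses. 4) Unreached endpoint = highest concentration. GI50 = concentration required for 50% inhibition of growth. The concentration for full growth arrest is given as TGI.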
Legend:
Experiment in all cases: NCI tumour cell line growth inhibition, 48 h
[1] = tested on: NCI-H226 lung
[2] = tested on: SW-620 colon
[3] = tested on: NCI-H522 lung
[4] = tested on: DU-145 prostate
[5] = tested on: MOLT-4 leukemia
[6] = tested on: CCRF-CEM leukemia
[7] = tested on: SR leukemia
[8] = tested on: CAKI-1 renal
[9] = tested on: HCT-116 colon
[10] = tested on: SNB-19 CNS
[11] = tested on: HCT-15 colon
[12] = tested on: OVCAR-4 ovarian
[13] = tested on: SK-MEL-28 melanoma
[14] = tested on: M14 melanoma
[15] = tested on: SF-268 CNS
[16] = tested on: A498 renal
[17] = tested on: RXF 393 renal
[18] = tested on: HS 578T breast
[19] = tested on: IGROV1 ovarian
[20] = tested on: UACC-257 melanoma
[21] = tested on: SN12C renal
[22] = tested on: SK-MEL-5 melanoma
[23] = tested on: OVCAR-3 ovarian
[24] = tested on: LOX IMVI melanoma
[25] = tested on: PC-3 prostate
[26] = tested on: BT-549 breast
[27] = tested on: SK-MEL-2 melanoma
[28] = tested on: MCF7 breast
[29] = tested on: COLO 205 colon
[30] = tested on: 786-0 renal
[31] = tested on: HOP-92 NSCLC
[32] = tested on: MDA-MB-435
[33] = tested on: ACHN renal
[34] = tested on: SK-OV-3 ovarian
[35] = tested on: NCI-H460 lung
[36] = tested on: UO-31 renal
[37] = tested on: HCC-2998 colon
[38] = tested on: KM12 colon
[39] = tested on: UACC-62 melanoma
[40] = tested on: NCI/ADR-RES ovarian
[41] = tested on: OVCAR-8 ovarian
[42] = tested on: HT29 colon
[43] = tested on: SF-295 CNS
[44] = tested on: SNB-75 CNS
[45] = tested on: MALME-3M melanoma
[46] = tested on: RPMI-8226 leukemia
[47] = tested on: NCI-H23 lung
[48] = tested on: EKVX NSCLC
[49] = tested on: T-47D breast
[50] = tested on: A549 NSCLC
[51] = tested on: HOP-62 NSCLC
[52] = tested on: SF-539 CNS
[53] = tested on: HL-60(TB) leukemia
[54] = tested on: K-562 leukemia
[55] = tested on: OVCAR-5 ovarian
[56] = tested on: U251 CNS
[57] = tested on: MDA-MB-231 breast
[58] = tested on: TK-10 renal

Fc1[nH]nc2ccc([C@@H]3Nc4ccc5[nH]ncc5c4[C@H]4C5CCC(C5)[C@@H]34)cc12 (some centres undefined)
GI50 [1]: 3.54 µM
TGI [1]: 25.9 µM
GI50 [2]: 0.472 µM
TGI [2]: 17.3 µM
GI50 [3]: 0.432 µM
TGI [3]: 9.27 µM
GI50 [4]: 3.22 µM
TGI [4]: 14.9 µM
GI50 [5]: 0.651 µM
TGI [5]: 12.7 µM
GI50 [6]: 0.514 µM
TGI [6]: 16.5 µM
GI50 [7]: 0.37 µM
TGI [7]: 3.61 µM
GI50 [8]: 0.671 µM
TGI [8]: 15 µM
GI50 [9]: 0.441 µM
TGI [9]: 12.1 µM
GI50 [10]: 1.22 µM
TGI [10]: 18.1 µM
GI50 [11]: 0.495 µM
TGI [11]: 13.1 µM
GI50 [12]: 4.51 µM
TGI [12]: 17.8 µM
GI50 [13]: 1.54 µM
TGI [13]: 16.2 µM
GI50 [14]: 0.514 µM
TGI [14]: 11.7 µM
GI50 [15]: 2.59 µM
TGI [15]: 19.8 µM
GI50 [16]: 0.536 µM
TGI [16]: 3.91 µM
GI50 [17]: 1.22 µM
TGI [17]: 7.8 µM
GI50 [18]: 1.4 µM
TGI [18]: 13.6 µM
GI50 [19]: 0.86 µM
TGI [19]: 16 µM
GI50 [20]: 10.4 µM
TGI [20]: 23.9 µM
GI50 [21]: 1.99 µM
TGI [21]: 18.1 µM
GI50 [22]: 1.94 µM
TGI [22]: 12.4 µM
GI50 [23]: 0.39 µM
TGI [23]: 2.97 µM
GI50 [24]: 0.768 µM
TGI [24]: 14 µM
GI50 [25]: 1.12 µM
TGI [25]: 13.6 µM
GI50 [26]: 1.77 µM
TGI [26]: 17.8 µM
GI50 [27]: 0.913 µM
TGI [27]: 12.2 µM
GI50 [28]: 0.387 µM
TGI [28]: 12.6 µM
GI50 [29]: 0.801 µM
TGI [29]: 4.81 µM
GI50 [30]: 2.82 µM
TGI [30]: 15.6 µM
GI50 [31]: 2 µM
TGI [31]: 14.2 µM
GI50 [32]: 0.286 µM
TGI [32]: 1.08 µM
GI50 [33]: 1.52 µM
TGI [33]: 13.6 µM
GI50 [34]: 1.88 µM
TGI [34]: 16.5 µM
GI50 [35]: 0.804 µM
TGI [35]: 7.26 µM
GI50 [36]: 2.83 µM
TGI [36]: 14.1 µM
GI50 [37]: 3.14 µM
TGI [37]: 12.8 µM
GI50 [38]: 0.559 µM
TGI [38]: 11.5 µM
GI50 [39]: 0.849 µM
TGI [39]: 13.2 µM
GI50 [40]: 0.576 µM
TGI [40]: 8.99 µM
GI50 [41]: 2.46 µM
TGI [41]: 16.4 µM
GI50 [42]: 0.439 µM
TGI [42]: 12.8 µM
GI50 [43]: 0.414 µM
TGI [43]: 10.6 µM
GI50 [44]: 0.503 µM
TGI [44]: 3.93 µM
GI50 [45]: 11.6 µM
TGI [45]: 26 µM
GI50 [46]: 1.42 µM
TGI [46]: 16.7 µM
GI50 [47]: 2.8 µM
TGI [47]: 15.9 µM
GI50 [48]: 2.39 µM
TGI [48]: 17.4 µM
GI50 [49]: 0.436 µM
TGI [49]: 12.9 µM
GI50 [50]: 1.03 µM
TGI [50]: 12.1 µM
GI50 [51]: 0.747 µM
TGI [51]: 13.8 µM
GI50 [52]: 0.854 µM
TGI [52]: 3.94 µM
GI50 [53]: 0.348 µM
TGI [53]: 1.69 µM
GI50 [54]: 0.324 µM
TGI [54]: 13.9 µM
GI50 [55]: 3.06 µM
TGI [55]: 14.6 µM
GI50 [56]: 1.02 µM
TGI [56]: 13.5 µM
GI50 [57]: 1.97 µM
TGI [57]: 17.5 µM
GI50 [58]: 3.51 µM
TGI [58]: 15.5 µM

CN(C)c1ccc(/C=C\C2=[N+](C)c3ccccc3C2(C)C)cc1
GI50 [1]: 2.68 µM
TGI [1]: > 55.2 µM
GI50 [2]: 0.399 µM
TGI [2]: 19.1 µM
GI50 [3]: 0.703 µM
TGI [3]: > 67.4 µM
GI50 [4]: 0.473 µM
TGI [4]: 27 µM
TGI [5]: > 100 µM
GI50 [6]: 0.453 µM
TGI [6]: > 100 µM
GI50 [7]: 28.5 µM
TGI [7]: > 100 µM
GI50 [8]: 1.82 µM
TGI [8]: 20.6 µM
GI50 [9]: 0.32 µM
TGI [9]: > 32.1 µM
GI50 [10]: 0.775 µM
TGI [10]: 38.1 µM
GI50 [11]: 4.18 µM
TGI [11]: > 69.7 µM
GI50 [12]: 0.981 µM
TGI [12]: > 59.4 µM
GI50 [13]: 0.51 µM
TGI [13]: 21.5 µM
GI50 [14]: 1.91 µM
TGI [14]: > 38.2 µM
GI50 [15]: 0.654 µM
TGI [15]: 34 µM
GI50 [16]: 4.38 µM
TGI [16]: 28.2 µM
GI50 [17]: 1.45 µM
TGI [17]: 27.7 µM
GI50 [18]: 0.305 µM
TGI [18]: 8.68 µM
GI50 [19]: 0.458 µM
TGI [19]: > 50.1 µM
GI50 [20]: 1.5 µM
TGI [20]: > 31.2 µM
GI50 [21]: 0.351 µM
TGI [21]: 14.6 µM
GI50 [22]: 0.715 µM
TGI [22]: 3 µM
GI50 [23]: 0.342 µM
TGI [23]: 4.38 µM
GI50 [24]: 0.356 µM
TGI [24]: 14.6 µM
GI50 [25]: 0.195 µM
GI50 [26]: 0.423 µM
TGI [26]: 11.2 µM
GI50 [27]: 1.31 µM
TGI [27]: 43.2 µM
GI50 [28]: 0.455 µM
TGI [28]: 30.7 µM
GI50 [29]: 0.354 µM
TGI [29]: 1.65 µM
GI50 [30]: 2.48 µM
TGI [30]: > 41.2 µM
GI50 [31]: 0.89 µM
TGI [31]: > 22.8 µM
GI50 [32]: 0.422 µM
TGI [32]: 9.35 µM
GI50 [33]: 1.75 µM
TGI [33]: > 36.7 µM
GI50 [34]: 0.696 µM
TGI [34]: > 24.4 µM
GI50 [35]: 0.466 µM
TGI [35]: 7.16 µM
GI50 [36]: 3.74 µM
TGI [36]: > 100 µM
GI50 [37]: 1.22 µM
TGI [37]: 12.9 µM
GI50 [38]: 0.369 µM
TGI [38]: 4.46 µM
GI50 [39]: 1.49 µM
TGI [39]: 19.9 µM
GI50 [40]: 10.6 µM
TGI [40]: > 61.6 µM
GI50 [41]: 0.614 µM
TGI [41]: > 41.1 µM
GI50 [42]: 0.309 µM
GI50 [43]: 0.994 µM
TGI [43]: > 23.6 µM
GI50 [44]: 0.709 µM
TGI [44]: 19.9 µM
GI50 [45]: 0.456 µM
TGI [45]: 16.5 µM
GI50 [46]: 0.176 µM
TGI [46]: > 53.5 µM
GI50 [47]: 0.299 µM
TGI [47]: 23.7 µM
GI50 [48]: 1.29 µM
TGI [48]: > 100 µM
GI50 [49]: 0.634 µM
TGI [49]: > 33.2 µM
GI50 [50]: 1.06 µM
TGI [50]: > 62 µM
GI50 [51]: 0.842 µM
TGI [51]: 21.6 µM
GI50 [52]: 1.12 µM
TGI [52]: 16.7 µM
GI50 [53]: 0.295 µM
TGI [53]: > 100 µM
GI50 [54]: 1.77 µM
TGI [54]: > 100 µM
GI50 [55]: 3.18 µM
TGI [55]: 43.8 µM
GI50 [56]: 0.233 µM
TGI [56]: 17.4 µM
GI50 [57]: 2.12 µM
TGI [57]: 18.8 µM
GI50 [58]: 1.25 µM
TGI [58]: > 52.4 µM
